Experimental data reported in patent US8859463B2, “Method for controlling noxious organisms” (Sumitomo Chemical Company, Limited, priority 2009, dated 2014).

Legend:
Format in all cases: in vivo
Aulacorthum solani = test: Insecticidal effect (protective value), soybean pot test, Example 1; conditions: clothianidin none, day 6 after release
Procedure: The evaluation of the insecticidal effect was performed by determining the life and death of the insects at the time of the investigation and calculating the protective value according to the following equation; Protective Value (%)=100×(1−T/C) wherein the symbols have the following meanings;
C: The number of insects at the time of observation in an untreated section: and
T: The number of insects at the time of observation in a treated section.
Thereafter, the test pot was placed in a greenhouse.

Ipomoea lacunosa [1] = test: Herbicidal activity, corn pot test, Example 59; conditions: pyraclostrobin none, flumioxazin 25 g/ha, twelve days after sowing
Procedure: In a glass container measuring 60 mm in inner diameter and 20 mm in height, 8 mg of a pyraclostrobin emulsifiable concentrate (emulsifiable concentrate containing 23.8% pyraclostrobin, manufactured by BASF under the trade name of Comet) and 25 corn seeds were placed. After capping a glass container, the pyraclostrobin emulsifiable concentrate was adhered to the corn seeds by shaking the glass container by hand. In the same manner, 22 mg of the pyraclostrobin emulsifiable concentrate was adhered to the corn seeds.
(§1) A plastic pot measuring 194 mm in inner diameter and 176 mm in height was filled with the soil. In this pot, 2 corn seeds were sown per 1 pot and 10 seeds of Ipomoea lacunosa were sown per 1 pot. On the day of sowing of the corn seeds, after sowing the corn seeds, a water diluted solution (24.5 mg of product/liter) of a flumioxazin granular wettable powder (granular wettable powder containing 51% flumioxazin, manufactured by Valent USA Corporation under the trade name of Valor SX), a water diluted solution (66.7 mg of product/liter) of a sulfentrazone granular wettable powder (granular wettable powder containing 75% sulfentrazone, manufactured by FMC Corporation under the trade name of Cover), a water diluted solution (15 mg/liter) of saflufenacil and a water diluted solution (100 mg/liter) of oxyfluorfen were uniformly sprayed over a surface of the soil in each amount described in Tables 22 to 25, using a sprayer. The water diluted solutions of saflufenacil and oxyfluorfen were prepared by dissolving each predetermined amount of saflufenacil and oxyfluorfen in acetone containing 2% (w/v) Tween 20 and diluting each solution with water so as to adjust the concentration of acetone to 10% by volume.
Twelve days after sowing the seeds of corn and Ipomoea lacunose, herbicidal activity was examined.

Digitaria ciliaris = test: Herbicidal activity, soybean pot test, Example 75; conditions: metalaxyl compound none, flumioxazin 50 g/ha, twelve days after sowing
Procedure: (§2) In a glass container measuring 60 mm in inner diameter and 20 mm in height, 12 mg of a metalaxyl emulsifiable concentrate (emulsifiable concentrate containing 25% metalaxyl, manufactured by Syngenta under the trade name of Subdue) and 20 soybean seeds were placed. After capping this glass container, the metalaxyl emulsifiable concentrate was adhered to the soybean seeds by shaking the glass container by hand. In the same manner, 47 mg of the metalaxyl emulsifiable concentrate was adhered to the soybean seeds. In the same manner, 9 mg of a metalaxyl-M emulsifiable concentrate (emulsifiable concentrate containing 33.3% metalaxyl-M manufactured by Syngeta under the trade name of Apron XL) was adhered to the soybean seeds. In the same manner, 40 mg of the metalaxyl-M emulsifiable concentrate was adhered to the soybean seeds.
(§3) A plastic pot measuring 194 mm in inner diameter and 176 mm in height was filled with the soil. In this pot, 2 soybean seeds were sown per 1 pot, 7 seeds of Ipomoea hederacea were sown per 1 pot, and 10 seeds of Digitaria ciliaris were sown per 1 pot. […]

Ipomoea hederacea = test: Herbicidal activity, soybean pot test, Example 75; conditions: metalaxyl compound none, flumioxazin 50 g/ha, twelve days after sowing
Procedure: as §2, §3

Ipomoea lacunosa [2] = test: Herbicidal activity, corn pot test, Example 76; conditions: metalaxyl-M none, flumioxazin 25 g/ha, ten days after sowing
Procedure: In a glass container measuring 60 mm in inner diameter and 20 mm in height, 15 mg of a metalaxyl-M emulsifiable concentrate (emulsifiable concentrate containing 33.3% metalaxyl-M, manufactured by Syngenta under the trade name of Apron XL) and 25 corn seeds were placed. After capping this glass container, the metalaxyl-M emulsifiable concentrate was adhered to the corn seeds by shaking the glass container by hand. In the same manner, 33 mg of the metalaxyl-M emulsifiable concentrate was adhered to the corn seeds.
as §1, with “sulfentrazone” for “sulfentrazone,”, “28” for “22”, “31,” for “25,”
Ten days after sowing the seeds of corn and Ipomoea lacunosa, herbicidal activity was examined.

SMILES: C#CCN1C(=O)COc2cc(F)c(N3C(=O)C4=C(CCCC4)C3=O)cc21 [Flumioxazin, flumioxazin]
- Protective Value (Aulacorthum solani; flumioxazin 12.5 g/ha): 0%
- Protective Value (Aulacorthum solani; flumioxazin 25 g/ha): 0%
- Herbicidal activity (Ipomoea lacunosa [1]): 40
- Herbicidal activity Digitaria ciliaris (Digitaria ciliaris): 75
- Herbicidal activity Ipomoea hederacea (Ipomoea hederacea): 55
- Herbicidal activity (Ipomoea lacunosa [2]): 40
